Values quoted from earlier work as cited in patent publication US20250387523A1, “COMBINATION THERAPY OF RADIONUCLIDE COMPLEX” (Novartis AG, priority 2021, published 2025).
Where two headings read alike, the source gives them in different places.

Assays:
recurrent glioblastoma = conditions: randomized 2:1
[1] = tested on: newly diagnosed glioblastoma; conditions: newly diagnosed patients; temozolomide added to radiation therapy (radiotherapy alone 12.1 months)
[2] = tested on: newly diagnosed glioblastoma

SMILES: O=NN(CCCl)C(=O)NC1CCCCC1 [lomustine]
- median OS (recurrent glioblastoma): 8.6 months
- median PFS (recurrent glioblastoma): 1.5 months

SMILES: Cn1nnc2c(C(N)=O)ncn2c1=O [temozolomide, 3,4-Dihydro-3-methyl-4-oxoimidazo[5,1-d][1,2,3,5]tetrazine-8-carboxamide]
- longer median survival with MGMT promoter methylation (glioblastoma; glioblastoma patients treated with temozolomide, MGMT promoter methylation present vs lacking): approximately 50%
- clinical benefit (glioblastoma; patients that lack MGMT promoter methylation): no clinical benefit
- median overall survival [1]: 14.6 months
- median survival ([2]; patients with a methylated MGMT promoter, temozolomide and radiotherapy (radiotherapy only 15.3 months, P=0.007)): 21.7 months
- median survival ([2]; tumors not methylated at the MGMT promoter, temozolomide plus radiotherapy (radiotherapy only 11.8 months, P=0.06)): 12.7 months
